Key:
[1] = Stability of Fe-BBG against trans-chelation by endogenous chelators (UV-vis); assay type: physicochemical
Text: In other words, the ligand BBG binds to Fe^3+ with an estimated 230±40 times higher affinity than citrate.

[2] = Human blood plasma incubation, ultrafiltration and ICP-MS of metals; conditions: 0-5 mM BBG, 1 h, 37° C., 10 kDa cutoff
Protocol: The plasma concentrate and ultrafiltrate were assayed for concentrations of Cu and Zn, as well as Mn, Mg, and Ca by ICP-MS.
To illustrate this point, human blood plasma samples containing between 0-5 mM BBG were incubated for 1 h at 37° C. before separation of the low-molecular weight solution components by ultrafiltration through a 10 kDa molecular weight cutoff filter. The plasma concentrate and ultrafiltrate were assayed for concentrations of Cu and Zn, as well as Mn, Mg, and Ca by ICP-MS, FIG. 14.

[3] = pH-potentiometric titration, Cu2+ complex; assay type: physicochemical; conditions: pH 7.4
Protocol: (§1) The aqueous solutions thermodynamics of BBG and its corresponding complexes of Fe^3+, Cu^2+, and Zn^2+ were interrogated through pH-potentiometric titration of BBG (L) in the absence and presence of 1 molar equivalent of Fe^3+, Cu^2+, or Zn^2+, FIG. 13A.
(§2) pH-potentiometric measurements were performed using an Orion ROSS Ultra pH electrode and temperature-controlled reaction vessel held at 310 K. A standardized solution of 0.10 M NaOH was used as the titrant. The electrode was calibrated prior to each titration by titrating a standardized HCl(aq) solution at ionic strength 0.10 using NaCl as the inert electrolyte with the standardized NaOH titrant. A working slope and intercept were generated by plotting mV as a function of calculated pH, which enabled direct conversion of electrode readings to [H^+] during sample titrations. pH values recorded during the titrations refers to hydrogen ion concentration. All titration samples were prepared in solutions of 0.10 M NaCl in distilled, deionized water. Ligand solutions were prepared by dissolving a weighed quantity into water and concentration was determined from the effective weight of the ligand and confirmed by the quantity of NaOH required to consume 1 molar equivalent of ligand proton. […]

[4] = pH-potentiometric titration, Zn2+ complex; assay type: physicochemical; conditions: pH 7.4
Protocol: as §1, §2

[5] = target: holo-transferrin (Homo sapiens, UniProt P02787); test: Fe removal from holo-transferrin by BBG ligand; assay type: biochemical; conditions: 24 h, pH 7.4, 37° C.
holo-transferrin, sequence (P02787 20-698): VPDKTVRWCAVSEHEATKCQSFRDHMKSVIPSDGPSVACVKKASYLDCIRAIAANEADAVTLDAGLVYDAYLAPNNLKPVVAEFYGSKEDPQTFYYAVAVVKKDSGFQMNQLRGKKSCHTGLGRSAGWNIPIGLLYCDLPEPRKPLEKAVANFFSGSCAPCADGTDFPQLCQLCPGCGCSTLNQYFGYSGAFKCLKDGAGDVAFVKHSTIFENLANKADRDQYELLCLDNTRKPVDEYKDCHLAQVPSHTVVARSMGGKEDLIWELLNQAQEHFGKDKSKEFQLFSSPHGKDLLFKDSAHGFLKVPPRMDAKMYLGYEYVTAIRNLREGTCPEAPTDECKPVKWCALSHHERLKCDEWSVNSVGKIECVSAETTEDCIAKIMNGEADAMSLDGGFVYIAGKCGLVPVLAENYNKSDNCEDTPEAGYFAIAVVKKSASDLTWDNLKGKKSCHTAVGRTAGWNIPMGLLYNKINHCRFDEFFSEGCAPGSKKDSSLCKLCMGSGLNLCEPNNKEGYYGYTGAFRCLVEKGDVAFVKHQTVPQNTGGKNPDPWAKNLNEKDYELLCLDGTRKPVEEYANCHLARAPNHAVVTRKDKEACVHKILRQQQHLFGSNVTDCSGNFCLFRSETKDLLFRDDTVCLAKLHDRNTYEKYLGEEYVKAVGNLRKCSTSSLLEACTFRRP
Protocol: Solutions of 20 μM holo-transferrin and BBG of concentration ranging between 0 and 100 μM (0-5 molar equivalents) were incubated for 24 h in pH 7.4 50 mM HEPES buffer supplemented with 25 mM carbonate at 37° C., and Fe removal from transferrin was monitored using fluorescence spectroscopy (excitation wavelength: 280 nm).
In another experiment, […] holo-transferrin and was incubated with 100 μM BBG (10 molar equivalents) for 24 h in pH 7.4 50 mM HEPES buffer supplemented with 25 mM carbonate at 37° C., and Fe removal monitored by urea gel electrophoresis assay, FIG. 11B.

[6] = cited from earlier work

| Fe^3+ affinity relative to endogenous chelators [1] | Fe^3+ affinity relative to citrate ([1]; estimated from citrate challenge) | metal ion content remaining in the plasma concentrate [2] | greater stability of Fe^3+ binding than Cu^2+ [3] | greater stability of Fe^3+ binding than Zn^2+ [4] | Fe removal from transferrin (urea gel electrophoresis) ([5]; 10 μM holo-transferrin, 100 μM BBG (10 molar equivalents)) | Fe removal from transferrin (fluorescence spectroscopy) ([5]; 20 μM holo-transferrin, 0-100 μM BBG) | Molecule | log Kcond at pH 7.4 for Fe^3+, first binding site [6] | log Kcond at pH 7.4 for Fe^3+, second binding site [6] |
| --- | --- | --- | --- | --- | --- | --- | --- | --- | --- |
| substantially higher affinity | 230±40 times | little effect | 9 orders of magnitude | 15 orders of magnitude | No evidence of Fe removal | No evidence of Fe removal | O=C(O)CC[C@@H](C(=O)O)N(Cc1ccccc1O)Cc1ccccc1O [BBG, N,N-bis(2-hydroxybenzyl)-L-glutamic acid] | – | – |
| – | – | – | – | – | – | – | transferrin: the iron carrier protein transferrin | about 20.7 | ~19.4 |
